Test results from patent publication US7195783B2, “Hypericin and hypericum extract: specific T-type calcium channel blocker, and their use as T-type calcium channel targeted therapeutics” (FX Life Sciences International GmbH, priority 1999, dated 2007).
Entries after “also recorded” stand apart in the source; their conditions may differ.

Legend:
L-type calcium channels = assay: Whole-cell patch-clamp, L-type calcium current in cultured N1E-115 neuroblastoma cells; assay type: cell-based, Mouse; conditions: cultured N1E-115 cells; hypericin 0.1, 1 and 10 uM (FIG. 1)
Description: (§1) Mouse neuroblastoma cells (N1E115) were cultured in Dulbecco's modified Eagle's medium (GIBCO) containing 10% fetal bovine serum at 37° C. in a humidified atmosphere of 5% CO2 in air. The medium was changed every 3–4 days. After mechanical agitation, 3×10^4 cells were replanted in 35 mm tissue culture dishes containing 4 ml of bath solution. After cell attachment, the dish was mounted on the stage of an inverted phase-contrast microscope (Nikon) for Ca^2+ channel current recording. These cells expressed predominately T channel currents. In experiments where L channels were specifically sought, the cells were grown and maintained at confluence for 3–4 weeks under the same culture conditions with the addition of 2% (vol/vol) dimethyl sulfoxide. Three to five days before use, the cells were replanted with the same medium. These cells expressed predominately L channel currents. A small number of these cells also expressed T channel currents.
The whole-cell version of the patch-clamp technique was used. […] Since the peak currents measured with 20 mM Ba^2+ as the charge carrier were usually small (about 200 pA), the series resistance compensation was not usually employed. […] For every single-cell recording, stable readings were first obtained for 5 min; the drug was then added to the bath solution. […]

T-type calcium channel = assay: Whole-cell patch-clamp, T-type calcium current in N1E-115 cells; assay type: cell-based, Mouse; conditions: for effect on T-type calcium current: hypericin 0.1 to 10 uM (FIG. 3)
Description: as §1
The whole-cell version of the patch-clamp technique was used. The pipettes had resistance of 2–15 M. Membrane current recordings were made with an Axopatch-1C (Axon Instruments) patch-clamp amplifier. All signals were filtered at 1 kHz and stored in the computer. Since the peak currents measured with 20 mM Ba^2+ as the charge carrier were usually small (about 200 pA), the series resistance compensation was not usually employed. If the capacitive transient overlapped with the onset of the inward current, or if the spatial voltage control was inadequate (i.e., NIE-115 cells with long neural outgrowths), the experimental data were rejected. Unless otherwise specified the current-voltage plots were constructed by using the peak values (corrected for leakage) from the original records for both T and L channel currents. The holding membrane potential was fixed at −80 mV when the T channels were under investigation or at […] when the L channels were studied. […] For every single-cell recording, stable readings were first obtained for 5 min; the drug was then added to the bath solution. […]

L-type calcium current [1] = assay: L-type calcium current in vascular smooth muscle cells (VSMC); assay type: cell-based; conditions: vascular smooth muscle cells (FIG. 6)
L-type calcium current [2] = assay: L-type calcium current in ventricular cells from baby rats; assay type: cell-based; conditions: ventricular cells from baby rats (FIG. 7)

hypericin
effect on L-type calcium current activity (L-type calcium channels): slight but not significant increase; also recorded: does not significantly affect
inhibition on T-type calcium current (T-type calcium channel; 0.15 ug/ml of pure hypericin (FIG. 3)): less than 10%
effect on T-type calcium current (T-type calcium channel): inhibited T-type calcium currents in a dose-dependent manner
effect on T-type calcium current (T-type calcium channel; listed as Hypericin): dose-dependent inhibitory effect
effect on L-type calcium current (L-type calcium current [1]): did not affect
effect on L-type calcium current (L-type calcium current [2]): did not affect
